In the supplement of paper PMC11208160:

assay: recombinant barcode read abundance after kanamycin selection (control-corrected) (log10(CPM+1)); higher = more efficient recombination; sequences stand for … in AGTGCAGAGAAAATCGGCCAGTTTTCTCTGCCTGCAGTCCGCATGCCGT…AGATTTATGCAGCGGACTGCCTTTCTCCCAAAGTGATAAACCGGACAGTATCATGGACCGGTTTTCCCGGTAATCCGTATTTGCAAGGTTGGTTTCACT; site = the 11-nt target
Procedure: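 Pooled E. coli target-specificity screen for the IS621 bridge recombinase. Each library plasmid pairs an 11-nt target (CT core) with a bridge RNA whose target-binding loop (9-nt LTG + 4-nt RTG) is reprogrammed; the rest of the 177-nt WT IS621 bridge RNA scaffold is fixed. The plasmid is co-electroporated with a WT donor plasmid; recombinase is induced with 0.1 mM IPTG and recombinants are selected on kanamycin. Recombinant barcodes are sequenced, converted to CPM, averaged over two biological replicates and corrected by the unselected control CPM. Molecule = full bridge RNA written as DNA: LTG = specificity nt 1-9, RTG = reverse complement of specificity nt 8-11, in the WT scaffold.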
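Further: IS621 recombinase and bridge RNA in Escherichia coli cells.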

Sequence	recombinant barcode read abundance (log10)
AACACTCCTTGGGTTCTAACCTGTTGCTT (site AAGACTCCTAA)	0.299
AACAGTTCTTGGGTTCTAACCTGTTGCCT (site AACAGCTCTAG)	0.151
AACAGTTCTTGGGTTCTAACCTGTTGCCT (site AACAGTTCTAG)	0.749
AACCGCCCTTGGGTTCTAACCTGTTGCGT (site AACCGCCCTAC)	2.47
AACCGCCCTTGGGTTCTAACCTGTTGCGT (site AACCGCCCTAG)	0.434
AACCTAGCTTGGGTTCTAACCTGTTGCTA (site AACCTAGCTTA)	0.395
AACCTAGCTTGGGTTCTAACCTGTTGCTA (site ACCCTAGCTGA)	0.0657
AACGCTTCTTGGGTTCTAACCTGTTGCCT (site AACGCTTCTAG)	0.3
AACGCTTCTTGGGTTCTAACCTGTTGCCT (site ACCGCTTCTAG)	0.215
AACGCTTCTTGGGTTCTAACCTGTTGCCT (site AGCGCTTCTAG)	0.0496
AACGCTTCTTGGGTTCTAACCTGTTGCCT (site ATCGCTTCTAG)	0.0246
AACGTACCTTGGGTTCTAACCTGTTGCCA (site AACGTACCTTG)	0.674
AACGTACCTTGGGTTCTAACCTGTTGCCA (site GGTAATACTAT)	0.0669
AACTCTCCTTGGGTTCTAACCTGTTGCAT (site AACTATCCTAT)	0.11
AACTCTCCTTGGGTTCTAACCTGTTGCAT (site AACTCTCCTAT)	0.588
AACTCTCCTTGGGTTCTAACCTGTTGCAT (site AACTGTCCTAT)	0.188
AACTCTCCTTGGGTTCTAACCTGTTGCAT (site AACTTTCCTAT)	0.0336
AACTGATCTTGGGTTCTAACCTGTTGCCT (site AACTAATCTAG)	0.0976
AACTGATCTTGGGTTCTAACCTGTTGCCT (site AACTCATCTAG)	0.0693
AACTGATCTTGGGTTCTAACCTGTTGCCT (site AACTGATCTAG)	0.397
AACTGATCTTGGGTTCTAACCTGTTGCCT (site AACTTATCTAG)	0.038
AACTGGGCTTGGGTTCTAACCTGTTGCCT (site AACTGGGCTAG)	0.252
AACTGGGCTTGGGTTCTAACCTGTTGCCT (site ACCTGGGCTAG)	0.149
AACTGGGCTTGGGTTCTAACCTGTTGCCT (site AGCTGGGCTAG)	0.0923
AACTGGGCTTGGGTTCTAACCTGTTGCCT (site ATCTGGGCTAG)	0.141

Sequence	recombinant barcode read abundance (log10)
AACTGTCCTTGGGTTCTAACCTGTTGCAT (site AACTATCCTAT)	0.106
AACTGTCCTTGGGTTCTAACCTGTTGCAT (site AACTCTCCTAT)	0.0428
AACTGTCCTTGGGTTCTAACCTGTTGCAT (site AACTGTCCTAT)	0.805
AACTGTCCTTGGGTTCTAACCTGTTGCAT (site AACTTTCCTAT)	0.106
AACTTAACTTGGGTTCTAACCTGTTGCCT (site AACTAAACTAG)	0.236
AACTTAACTTGGGTTCTAACCTGTTGCCT (site AACTCAACTAG)	0.0571
AACTTAACTTGGGTTCTAACCTGTTGCCT (site AACTGAACTAG)	0.09
AACTTAACTTGGGTTCTAACCTGTTGCCT (site AACTTAACTAG)	0.531
AACTTCGCTTGGGTTCTAACCTGTTGCCT (site AACTTCACTAG)	0.114
AACTTCGCTTGGGTTCTAACCTGTTGCCT (site AACTTCCCTAG)	0.00931
AACTTCGCTTGGGTTCTAACCTGTTGCCT (site AACTTCGCTAG)	0.423
AACTTCGCTTGGGTTCTAACCTGTTGCCT (site AACTTCTCTAG)	0.269
AACTTGACTTGGGTTCTAACCTGTTGCCT (site AAATTGACTAG)	0.248
AACTTGACTTGGGTTCTAACCTGTTGCCT (site AACTTGACTAG)	0.731
AACTTGACTTGGGTTCTAACCTGTTGCCT (site AAGTTGACTAG)	0.0706
AACTTGACTTGGGTTCTAACCTGTTGCCT (site AATTTGACTAG)	0.232
AAGAACTCTTGGGTTCTAACCTGTTGCCG (site AAGAACTCTCG)	2.1
AAGAACTCTTGGGTTCTAACCTGTTGCCG (site GTTTCAACTAC)	0.0172
AAGATACCTTGGGTTCTAACCTGTTGCTG (site AAGATACCTAA)	0.283
AAGATACCTTGGGTTCTAACCTGTTGCTG (site AAGATACCTCA)	1.76
AAGATATCTTGGGTTCTAACCTGTTGCCT (site AAGATATCTAG)	1.86
AAGATATCTTGGGTTCTAACCTGTTGCCT (site ACGATATCTAG)	0.119
AAGATATCTTGGGTTCTAACCTGTTGCCT (site AGGATATCTAG)	0
AAGATATCTTGGGTTCTAACCTGTTGCCT (site ATGATATCTAG)	0.0647
AAGCACCCTTGGGTTCTAACCTGTTGCAG (site AAGCACCCTCT)	2.59

Sequence	recombinant barcode read abundance (log10)
AAGCACCCTTGGGTTCTAACCTGTTGCAG (site TAGCACTCTCT)	0.311
AAGCACCCTTGGGTTCTAACCTGTTGCTG (site AAGCACCCTCA)	2.02
AAGCACCCTTGGGTTCTAACCTGTTGCTG (site CCTGCGACTGT)	0.276
AAGCCTACTTGGGTTCTAACCTGTTGCTA (site AAGCCTACTTA)	1.27
AAGCCTACTTGGGTTCTAACCTGTTGCTA (site GAGCCTACTTA)	0.0396
AAGGCCTCTTGGGTTCTAACCTGTTGCAT (site AAGGCCTCTAT)	2.93
AAGGCCTCTTGGGTTCTAACCTGTTGCAT (site AAGGCCTCTTG)	0.247
AAGGCTACTTGGGTTCTAACCTGTTGCCT (site AAGGCTACTAG)	0.304
AAGGCTACTTGGGTTCTAACCTGTTGCCT (site AAGGCTTCTAG)	0.144
AAGGTACCTTGGGTTCTAACCTGTTGCGG (site AAGGTACCTCC)	2.69
AAGGTACCTTGGGTTCTAACCTGTTGCGG (site GTCACTACTAT)	0.0994
AAGGTCACTTGGGTTCTAACCTGTTGCCT (site AAGGTCACTAG)	2.24
AAGGTCACTTGGGTTCTAACCTGTTGCCT (site ACGGTCACTAG)	0.816
AAGGTCACTTGGGTTCTAACCTGTTGCCT (site AGGGTCACTAG)	0.0802
AAGGTCACTTGGGTTCTAACCTGTTGCCT (site ATGGTCACTAG)	0.361
AAGGTCACTTGGGTTCTAACCTGTTGCTG (site AAGGTCACTCA)	2.52
AAGGTCACTTGGGTTCTAACCTGTTGCTG (site GTACATCCTAC)	0.0968
AAGTCCACTTGGGTTCTAACCTGTTGCCT (site AAGTCCACTAG)	0.934
AAGTCCACTTGGGTTCTAACCTGTTGCCT (site ATTTCCACTAG)	0.027
AAGTCTCCTTGGGTTCTAACCTGTTGCAG (site AAGTCTCCTCT)	0.174
AAGTCTCCTTGGGTTCTAACCTGTTGCAG (site GCAATATCTAG)	0.116
AAGTCTCCTTGGGTTCTAACCTGTTGCCT (site AAGACTCCTAG)	0.134
AAGTCTCCTTGGGTTCTAACCTGTTGCCT (site AAGTCTCCTAG)	0.64
